For 19 compounds, TGI and GI50 results are on record in PubChem BioAssay (NCI).

Where “and” joins values, the source holds several entries; their conditions need not be identical. Equal values may be shown once.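 Five compound concentrations were applied to cells in 96-well plates for 48 hours; endpoints were derived by simple linear interpolation of the resulting dose-response curve. GI50 marks 50% less growth. TGI: concentration producing complete growth inhibition.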

Some test systems named below: A549 NSCLC; DU-145 prostate; HCT-116 colon; HOP-92 NSCLC; HS 578T breast; HT29 colon; KM12 colon; M14 melanoma; PC-3 prostate; SN12C renal; SNB-75 CNS; T-47D breast; U251 CNS.
Common to all, as to assay: NCI-60 cell line screen, 48 h

Take `CN(CCCNC(=O)c1nn(-c2ccc(Cl)cc2Cl)c2c1ccc1ccccc12)CCCNC(=O)c1nn(-c2ccc(Cl)cc2Cl)c2c1ccc1ccccc12`: the TGI in the test on A549 NSCLC was determined as 3.11 µM; with DU-145 prostate, 3.18 µM; with HCT-116 colon, 3.07 µM; in the test on HOP-92 NSCLC it was 3.52 µM; in the test with HS 578T breast, 3.18 µM; with HT29 colon, 3.04 µM. Further, the TGI with KM12 colon came to 3.26 µM; in the test with M14 melanoma, 3.04 µM; in the test on PC-3 prostate, 3.08 µM; in the test on SN12C renal, 3.14 µM; in the test with SNB-75 CNS, 3.18 µM; with T-47D breast, 3.73 µM. This compound returned a TGI in the test on U251 CNS of 3.07 µM.

For the compound `NC(CCOCCP(=O)(O)CCOCCC(N)C(=O)O)C(=O)O` (stereo not given), the TGI in the test with A549 NSCLC, in the test with DU-145 prostate, with HCT-116 colon, in the test on HOP-92 NSCLC, with HS 578T breast and in the test with HT29 colon was > 100 µM throughout. Besides, the TGI in the test with KM12 colon, in the test on M14 melanoma, in the test with SN12C renal, in the test on SNB-75 CNS, with T-47D breast and in the test on U251 CNS was > 100 µM in each case.

Take `C=CC(C)CCC(C/C=C(\C)CCC=C(C)C)C(=C)CCCC(C)C` (stereo not given): the TGI with A549 NSCLC, in the test with DU-145 prostate, with HCT-116 colon, with HOP-92 NSCLC, in the test on HS 578T breast and with HT29 colon was > 100 µM in each case. In addition, the TGI in the test on KM12 colon, in the test on M14 melanoma, in the test on PC-3 prostate, in the test on SN12C renal, in the test on SNB-75 CNS and in the test on T-47D breast was > 100 µM each time. In addition, in the test with U251 CNS, the TGI is > 100 µM.

`O=C1OCc2cccc3c2-c2c1cccc2C(=O)OC3`: the TGI with HCT-116 colon was > 100 µM; in the test with HOP-92 NSCLC, 92.2 µM; in the test on HT29 colon, > 100 µM; in the test with KM12 colon, > 100 µM; in the test on M14 melanoma, > 100 µM; with U251 CNS, > 100 µM.

Take `CCc1c(Cc2cc(C)cc(C)c2)n2c(nc1=O)SCC2CBr` (stereo not given): the TGI in the test on A549 NSCLC, in the test on DU-145 prostate, in the test on HCT-116 colon, with HOP-92 NSCLC, in the test on HS 578T breast and with HT29 colon was > 50 µM each time. The TGI in the test on KM12 colon, with M14 melanoma, in the test on PC-3 prostate, in the test with SN12C renal, in the test on SNB-75 CNS and with T-47D breast was > 50 µM each time. In the test with U251 CNS, the TGI was > 50 µM.

For the compound `C/C(=C\c1ccc(Cl)c(Cl)c1)[N+](=O)[O-]`, the TGI was 3.41 µM and 4.52 µM in the test with A549 NSCLC; 2.92 µM and 3.12 µM in the test on DU-145 prostate; 2.85 µM and 10.2 µM in the test on HCT-116 colon; 2.99 µM with HOP-92 NSCLC; 9.44 µM with HS 578T breast; 5.9 µM in the test with HT29 colon. Also, the TGI was 3.29 µM and 4.16 µM in the test with KM12 colon; 3.13 µM and 3.16 µM with M14 melanoma; 3.81 µM in the test on PC-3 prostate; 4.08 µM in the test with SN12C renal; 2.71 µM in the test on U251 CNS. The GI50 was 1370 nM in the test with HCT-116 colon; 1430 nM in the test with HOP-92 NSCLC; 1710 nM in the test on KM12 colon; 1570 nM in the test with M14 melanoma; 1850 nM in the test with PC-3 prostate; 1460 nM with SNB-75 CNS.

For the compound `c1ccc(C[n+]2cccc(-c3cc4ccccc4[nH]3)c2)cc1`, the TGI in the test on A549 NSCLC is > 100 µM; with DU-145 prostate, > 100 µM; in the test on HCT-116 colon it was > 100 µM; in the test on HOP-92 NSCLC it was 54 µM; with HS 578T breast it was > 100 µM; with HT29 colon, > 100 µM. For the same compound, the TGI was 32 µM in the test with KM12 colon; 55.2 µM with M14 melanoma; > 100 µM in the test with PC-3 prostate; 42.6 µM in the test on SN12C renal; > 100 µM in the test on SNB-75 CNS; > 100 µM with T-47D breast. Also, in the test with U251 CNS, the TGI is > 100 µM.

For `CCCCC(=O)Oc1ccc2c(C)cc(=O)oc2c1`, the TGI in the test with A549 NSCLC, in the test with DU-145 prostate, in the test on HCT-116 colon, in the test on HOP-92 NSCLC, with HS 578T breast and in the test with HT29 colon was > 100 µM throughout. The TGI in the test with KM12 colon, in the test on M14 melanoma, with PC-3 prostate, in the test on SN12C renal, with SNB-75 CNS and in the test with T-47D breast was > 100 µM throughout. Moreover, the TGI in the test on U251 CNS is > 100 µM.

In the case of `O=C1/C(=C/c2ccco2)N=C(c2ccccc2)N1c1cc2cc(Sc3ccccc3)ccc2[nH]1`, the TGI with A549 NSCLC, in the test with DU-145 prostate, with HCT-116 colon, in the test on HOP-92 NSCLC, in the test on HS 578T breast and in the test on HT29 colon was > 25 µM each time. Moreover, the TGI with M14 melanoma, in the test with PC-3 prostate, in the test on SN12C renal, in the test with SNB-75 CNS and in the test on T-47D breast was > 25 µM in each case.

In the case of `NC(=O)NC(=O)c1cccc(NC(=O)CBr)c1`, the TGI in the test on A549 NSCLC was 7.6 µM; in the test on DU-145 prostate, 0.336 µM; in the test on HCT-116 colon, < 0.01 µM; with HOP-92 NSCLC, 1.75 µM; in the test with HS 578T breast, < 0.0505 µM; in the test with HT29 colon, < 0.0291 µM. For the same compound, the TGI is 14.4 µM in the test with KM12 colon; 0.549 µM in the test on M14 melanoma; 1.49 µM in the test on PC-3 prostate; 0.391 µM with SN12C renal; 1.69 µM in the test on SNB-75 CNS; 3.7 µM in the test on T-47D breast. The same compound returned a TGI with U251 CNS of 0.0582 µM.

Turning to `COc1cccc(CC2Cc3ccccc3CC(=O)N2)c1` (stereo not given), the TGI in the test with A549 NSCLC was > 100 µM; in the test on DU-145 prostate, > 100 µM; in the test with HCT-116 colon it was > 100 µM; in the test on HOP-92 NSCLC, > 100 µM; in the test with HS 578T breast it was 68.2 µM; with HT29 colon it was > 100 µM. The TGI with KM12 colon was > 100 µM; with M14 melanoma, 93.3 µM; in the test on PC-3 prostate it was > 100 µM; in the test on SN12C renal, > 100 µM; with SNB-75 CNS, > 100 µM; in the test on T-47D breast, > 100 µM. The TGI in the test with U251 CNS was > 100 µM.

As for `O=C(c1ccccc1)c1sc2c(=O)c(C(=O)c3ccccc3)c(C(=O)c3ccccc3)sc2c(=O)c1C(=O)c1ccccc1`, the TGI with A549 NSCLC, with DU-145 prostate, in the test on HCT-116 colon, in the test on HOP-92 NSCLC, in the test with HS 578T breast and in the test with HT29 colon was > 100 µM throughout. For the same compound, the TGI is > 100 µM in the test on KM12 colon; > 100 µM in the test on M14 melanoma; > 100 µM in the test on PC-3 prostate; > 100 µM with SN12C renal; 68 µM in the test on SNB-75 CNS; > 100 µM in the test with T-47D breast. Moreover, the TGI in the test on U251 CNS was > 100 µM.

For the compound `CC(C)NCCC(O)c1cc2ccccc2o1` (stereo not given), the TGI in the test on A549 NSCLC, in the test on DU-145 prostate, in the test on HCT-116 colon, with HOP-92 NSCLC, in the test on HS 578T breast and with HT29 colon was > 100 µM each time. Further, the TGI in the test with KM12 colon, in the test on M14 melanoma, in the test with PC-3 prostate, with SN12C renal, with SNB-75 CNS and in the test with T-47D breast was > 100 µM throughout. Besides, the TGI with U251 CNS is > 100 µM.

With `c1ccc(-c2nnc(-c3nsc4ccccc34)o2)cc1`, the TGI with A549 NSCLC, in the test with HCT-116 colon, in the test on HOP-92 NSCLC, with HT29 colon, in the test on KM12 colon and in the test on M14 melanoma was > 100 µM each time. In addition, the TGI in the test with SN12C renal is > 100 µM; in the test on SNB-75 CNS it was 19.7 µM; in the test with U251 CNS, > 100 µM.

For the compound `OC1CN2Cc3cc4c(cc3[C@]13C=C[C@@H](O)CC23)OCO4` (stereo not given in full), the TGI with A549 NSCLC was > 100 µM; with DU-145 prostate, 71.9 µM; in the test on HCT-116 colon it was > 100 µM; in the test with HOP-92 NSCLC it was 86.8 µM; in the test with HS 578T breast it was > 100 µM; in the test on HT29 colon, > 100 µM. The TGI in the test on KM12 colon is > 100 µM; in the test on M14 melanoma, > 100 µM; in the test on PC-3 prostate, > 100 µM; with SN12C renal it was > 100 µM; with T-47D breast, 31.2 µM; in the test on U251 CNS it was > 100 µM.

On to `NC(Cc1ccccc1)(C(=O)O)C(=O)O`, for which the TGI in the test with A549 NSCLC, in the test on DU-145 prostate, in the test on HCT-116 colon, with HOP-92 NSCLC, in the test on HS 578T breast and in the test with HT29 colon was > 100 µM each time. The TGI in the test with KM12 colon, with M14 melanoma, in the test on PC-3 prostate, in the test on SN12C renal, with T-47D breast and in the test on U251 CNS was > 100 µM throughout.

For the compound `COc1ccc(Cc2nccc3cc(OC)c(OC)cc23)cc1OC`, the TGI in the test with A549 NSCLC, with DU-145 prostate, with HCT-116 colon, in the test on HOP-92 NSCLC, in the test on HS 578T breast and in the test on HT29 colon was > 100 µM throughout. The TGI in the test on KM12 colon, with M14 melanoma, with PC-3 prostate, with SN12C renal, in the test on SNB-75 CNS and in the test on T-47D breast was > 100 µM in each case. In addition, the TGI in the test on U251 CNS is > 100 µM.

For the compound `CCOC(=O)C1=C(C)N(NC(N)=O)C2(O)CCCC(=O)C12C` (stereo not given), the TGI with A549 NSCLC, in the test with HOP-92 NSCLC, in the test on HT29 colon, in the test with KM12 colon, in the test on M14 melanoma and in the test on SN12C renal was > 100 µM throughout. Besides, the TGI in the test with SNB-75 CNS and with U251 CNS was > 100 µM in each case.

With `O=C1/C(=C/c2ccc(Cl)cc2)N=C(c2ccccc2)N1c1ccc(S(=O)(=O)Nc2nccs2)cc1`, the TGI in the test on A549 NSCLC was > 100 µM; with DU-145 prostate, > 100 µM; with HCT-116 colon, > 100 µM; in the test with HOP-92 NSCLC, 90.7 µM; in the test with HS 578T breast it was > 100 µM; in the test on HT29 colon, 56.3 µM. Further, the TGI with KM12 colon is > 100 µM; in the test with M14 melanoma it was > 100 µM; with PC-3 prostate it was > 100 µM; in the test on SN12C renal it was > 100 µM; in the test on SNB-75 CNS, > 100 µM; with T-47D breast, 75.2 µM. Moreover, the TGI in the test with U251 CNS is > 100 µM.
